Laboratory results: patent US11090304B2 (Amgen Inc., priority 2018, dated 2021)

Target: GDP-bound KRAS protein (aa 1-169), containing both G12C and C118A amino acid substitutions (Homo sapiens, UniProt P01116, C118A/G12C)
Experiment: Coupled nucleotide exchange assay (SOS-mediated, AlphaScreen)
Format: biochemical

GDP-bound KRAS protein (aa 1-169), containing both G12C and C118A amino acid substitutions, sequence (P01116 1-169 isoform P01116-2 G12C/C118A): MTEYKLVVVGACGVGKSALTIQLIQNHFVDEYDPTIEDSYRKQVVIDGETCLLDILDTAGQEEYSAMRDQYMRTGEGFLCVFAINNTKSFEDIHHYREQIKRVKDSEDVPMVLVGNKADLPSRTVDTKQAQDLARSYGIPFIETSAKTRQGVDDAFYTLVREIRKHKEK

Coupled exchange IC50 (5 min) (5 min compound pre-incubation)	also measured	Structure (SMILES)
12.9 | nda μM	–	C=CC(=O)N1CCN(c2nc(=O)n(-c3c(CC)cccc3CC)c3nc(-c4cccnc4)c(Cl)cc23)[C@@H](C)C1 [Example 55-28, 6-chloro-1-(2,6-diethylphenyl)-4-((2S)-2-methyl-4-(2-propenoyl)-1-piperazinyl)-7-(3-pyridinyl)pyrido[2,3-d]pyrimidin-2(1H)-one]
–	Coupled exchange IC50 (2 h) (2 h compound pre-incubation): nda | 26.9 μM	C=CC(=O)N1CCN(c2nc(=O)n(Cc3ccccn3)c3nc(-c4c(O)cccc4F)c(Cl)cc23)CC1 [Example 60-7]
2.91 | nda μM	–	C=CC(=O)N1CCN(c2nc(=O)n(-c3c(C)ccnc3C(C)C)c3nc(-c4cccc(O)c4F)c(F)cc23)[C@@H](C)C1 (atropisomer, axis not shown; (M)) [Example 72-5, (M)-6-fluoro-7-(2-fluoro-3-hydroxyphenyl)-1-(4-methyl-2-(2-propanyl)-3-pyridinyl)-4-((2S)-2-methyl-4-(2-propenoyl)-1-piperazinyl)pyrido[2,3-d]pyrimidin-2(1H)-one]
5.65 | nda μM	–	C=CC(=O)N1CCN(c2nc(=O)n(-c3ccccc3OC(F)(F)F)c3nc(-c4c(O)cccc4F)c(Cl)cc23)[C@@H](C)C1 [Example 54-49, 6-chloro-7-(2-fluoro-6-hydroxyphenyl)-4-((2S)-2-methyl-4-(2-propenoyl)-1-piperazinyl)-1-(2-(trifluoromethoxy)phenyl) pyrido[2,3-d]pyrimidin-2(1H)-one]
26.4 | nda μM	–	C=CC(=O)N1CCN(c2nc(=O)n(-c3c(CC)cccc3CC)c3nc(N4CCC(C)C4)c(Cl)cc23)[C@@H](C)C1 (stereo partly drawn) [Example 66-10, 6-chloro-1-(2,6-diethylphenyl)-4-((2S)-2-methyl-4-(2-propenoyl)-1-piperazinyl)-7-(3-methyl-1-pyrrolidinyl)pyrido[2,3-d]pyrimidin-2(1H)-one]
10.2 | nda μM	–	C=CC(=O)N1CCN(c2nc(=O)n(-c3c(C#N)cccc3C(C)C)c3nc(-c4ccccc4F)c(Cl)cc23)[C@@H](C)C1 (single isomer, unassigned) [Example 60-20-1]
2.49 | nda μM	–	C=CC(=O)N1CCN(c2nc(=O)n(-c3ccccc3S(C)(=O)=O)c3nc(-c4c(O)cccc4F)c(Cl)cc23)[C@@H](C)C1 [Example 54-56-1]
1.17 | nda μM	–	C=CC(=O)N1CCN(c2nc(=O)n(-c3c(C)ccnc3C(C)C)c3nc(-c4cc(F)ccc4O)c(F)cc23)C(C)C1 (atropisomer, axis not shown; (M)) [Example 72-1, (M)-6-Fluoro-7-(5-fluoro-2-hydroxyphenyl)-1-(4-methyl-2-(2-propanyl)-3-pyridinyl)-4-((2S)-2-methyl-4-(2-propenoyl)-1-piperazinyl)pyrido[2,3-d]pyrimidin-2(1H)-one]
22.2 | nda μM	–	C=CC(=O)N1CCN(c2nc(=O)n(-c3ccccc3C)c3nc(Cl)c(Cl)cc23)[C@@H](C)C1 [Example 60-12, 6,7-dichloro-1-(2-methylphenyl)-4-((2S)-2-methyl-4-(2-propenoyl)-1-piperazinyl)pyrido[2,3-d]pyrimidin-2(1H)-one]
1.42 | nda μM	–	C=CC(=O)N1CCN(c2nc(=O)n(-c3ccccc3S(C)(=O)=O)c3nc(-c4c(O)cccc4F)c(Cl)cc23)[C@@H](C)C1 [Example 54-56, 6-chloro-7-(2-fluoro-6-hydroxyphenyl)-4-((2S)-2-methyl-4-(2-propenoyl)-1-piperazinyl)-1-(2-(methylsulfonyl)phenyl) pyrido[2,3-d]pyrimidin-2(1H)-one]
6.435 | nda μM	–	C=CC(=O)N1CCN(c2nc(=O)n(-c3c(C)cccc3C(C)C)c3nc(-c4cc(Cl)ccc4O)c(F)cc23)[C@@H](C)C1 (single isomer, unassigned) [Example 114]
3.45 | nda μM	–	C=CC(=O)N1CCN(c2nc(=O)n(-c3c(C)cccc3C(C)C)c3nc(-c4ccccc4F)c(C)cc23)[C@@H](C)C1 (single isomer, unassigned) [Example 102-1]
20.6 | nda μM	–	C=CC(=O)N1CCN(c2nc(=O)n(-c3ccccc3C(C)C)c3nc(Cl)c(Cl)cc23)[C@@H](C)C1 (atropisomer, axis not shown; (P)) [Example 61-1-2, (P)-6,7-dichloro-4-((2S)-2-methyl-4-(2-propenoyl)-1-piperazinyl)-1-(2-(2-propanyl)phenyl)pyrido[2,3-d]pyrimidin-2(1H)-one]
95 | nda μM	–	C=CC(=O)N1CCN(c2nc(=O)n(-c3c(CC)cccc3CC)c3nc(N4CCOC(C5CC5)C4)c(Cl)cc23)[C@@H](C)C1 (stereo partly drawn) [Example 66-25, 6-chloro-7-(2-cyclopropyl-4-morpholinyl)-1-(2,6-diethylphenyl)-4-((2S)-2-methyl-4-(2-propenoyl)-1-piperazinyl)pyrido[2,3-d]pyrimidin-2(1H)-one]
3.51 | nda μM	–	C=CC(=O)N1CCN(c2nc(=O)n(-c3ccccc3C(C)C)c3nc(-c4ccncc4F)c(Cl)cc23)[C@@H](C)C1 [Example 67-1, 6-Chloro-7-(3-fluoro-4-pyridinyl)-4-((2S)-2-methyl-4-(2-propenoyl)-1-piperazinyl)-1-(2-(2-propanyl)phenyl)pyrido[2,3-d]pyrimidin-2(1H)-one]
2.87 | nda μM	–	C=CC(=O)N1CCN(c2nc(=O)n(-c3ccccc3C(C)C)c3nc(-c4c(C)cnn4C)c(Cl)cc23)[C@@H](C)C1 [Example 67-3, 6-chloro-7-(1,4-dimethyl-1H-pyrazol-5-yl)-4-((2S)-2-methyl-4-(2-propenoyl)-1-piperazinyl)-1-(2-(2-propanyl)phenyl)pyrido[2,3-d]pyrimidin-2(1H)-one]
7.56 | nda μM	–	C=CC(=O)N1CCN(c2nc(=O)n(-c3c(C)ccnc3CC)c3nc(-c4ccccc4F)c(F)cc23)[C@@H](C)C1 (single isomer, unassigned) [Example 57-16-2]
–	IC50 (read-out: Coupled exchange IC50 (5 min), 5 min compound pre-incubation): 39 µM	C=CC(=O)N1CCN(c2nc(=O)n(-c3ccccc3C(C)C)c3nc(-c4ccc[nH]c4=O)c(Cl)cc23)[C@@H](C)C1 [Example 97, 6-Chloro-4-((2S)-2-methyl-4-(2-propenoyl)-1-piperazinyl)-7-(2-oxo-1,2-dihydro-3-pyridinyl)-1-(2-(2-propanyl)phenyl)pyrido[2,3-d]pyrimidin-(1H)-one]
1.48 | nda μM	–	C=CC(=O)N1CCN(c2nc(=O)n(-c3cccnc3C(C)(C)C)c3nc(-c4c(O)cccc4F)c(Cl)cc23)[C@@H](C)C1 (single isomer, unassigned) [Example 54-103-2]
1.56 | nda μM	–	C=CC(=O)N1CCN(c2nc(=O)n(-c3ccccc3C(C)C)c3nc(-c4cccc(OC(F)F)c4)c(Cl)cc23)[C@@H](C)C1 [Example 56-8, 6-chloro-7-(3-(difIuoromethoxy)phenyl)-4-((2S)-2-methyl-4-(2-propenoyl)-1-piperazinyl)-1-(2-(2-propanyl)phenyl)pyrido[2,3-d]pyrimidin-2(1H)-one]
38.6 | nda μM	–	C=CC(=O)N1CCN(c2nc(=O)n(C)c3nc(-c4c(C)ccc5[nH]ncc45)c(Cl)cc23)[C@@H](C)C1 [Example 55-36, 6-chloro-1-methyl-7-(5-methyl-1H-indazol-4-yl)-4-((2S)-2-methyl-4-(2-propenoyl)-1-piperazinyl)pyrido[2,3-d]pyrimidin-2(1H)-one]
